This is an account of results in patent US6767569B1, “Surface decontamination of cooked sausage and processed meat and poultry products” (priority 1999, dated 2004).

Where “and” joins values, the source holds several entries; their conditions need not be identical. Equal entries are not always repeated.

Data set [1] concerns Salmonella spp. In kind it is cell-based. Particulars: pork skin; 5 seconds spray; 2% lactic acid, 2% acetic acid, 0.1% peracetic acid; after 48 hours. The protocol: (§1) Samples of pork skin were inoculated separately with either 5 strains of E. coli or 5 strains of Salmonella spp. (mixtures X and Y, see Example 4). Five different treatments were evaluated for effectiveness in reducing bacteria on pork skin. […] EMB agar was used for E. coli and XLD for Salmonella, and a nutrient agar was also used for E. coli and Salmonella for total count.
(§2) The five strains of generic E. coli and five strains of Salmonella spp. were cultured and transferred individually into 100 mL of tryptic soy broth (TSB, DIFCO, Detroit, Mich.) with 1% dextrose (Sigma, St. Louis, Mo.) in duplicate. Dextrose was added to induce acid tolerance in the microbial cell. The cultures were incubated at 35° C. for 24 hrs. to obtain ca. 10^9 colony forming units (CFU)/mL. The cells were harvested by the centrifuging each culture at 10,000 Xg force for 10 min. at 4° C., (Beckman J2-HS centrifuge, Beckman Instruments, Inc., Palo Alto, Calif.). After centrifugation, the supernatant was poured off, and cells remained in pellet form. Each pellet was individually re-suspended with 50 mL of 0.1% peptonewater (DIFCO, Detroit, Mich.). All five strains of E. coli or Salmonella spp. inoculum were transferred to separate HDPE plastic spray bottles (Sprayco™, Detroit, Mich.) to be used in the mist inoculation of pork skin samples.
(§3) For E. coli, PCA and EMB media were used, and for Salmonella, PCA and XLD media were used. Bacto Plate Count Agar (PCA) was used in this study as a standard methods medium for the enumeration of bacteria before and after treatments. Spiral (sl), or spread (sd) plate technique were used for viable cell counts. Duplicate plates were performed for each treatment.
(§4) Fresh pork skins taken from the loin region were cut to rectangles of 19.35 cm^2. A hole was bored into the top of each sample so that each sample could be suspended from an individual hook in the spray cabinet. Samples were laid out onto trays wrapped in butcher paper. Each tray was individually spray inoculated with E. coli or Salmonella spp. in a Plexiglas spray chamber to ca. 8.4 mL of inoculum. After the inoculation, each tray was placed under a laminar flow hood for 1 hr. to allow the surface to dry and for the attachment of the bacteria to the pork skin.
(§5) The peracetic acid (PAA) used in this study was a 35.0% PAA buffered, liquid solution prepared from a STERIS 20™ two compartment cup (a dry powder containing anticorrosive additives, buffers, sequestrants, and surfactants). The peracetic acid determined before each use of the treatment using a calibration curve.
(§6) Five inoculated samples were individually placed on stainless steel hooks in. a spray cabinet at ambient temperature.
(§7) The samples were exposed to a continuous spray of the selected treatment for 5 seconds at a spray pressure of 16-18 psi.
(§8) The treated samples were placed into individual stomacher bags containing 30 mL of 0.1% peptone water (DIFCO, Detroit, Mich.) and stomached for 2 min. Serial dilutions of 0, 10^−2, and 10^−4 were spiral plated (WASP spiral plater, Bioscience International, Rockville, Md.) on PCA (DIFCO, Detroit, Mich.) and EMB (DIFCO, Detroit, Mich.) for E. coli and on plate count agar (PCA, DIFCO, Detroit, Mich.) and xylose lysine decarboxylase agar (XLD, DIFCO, Detroit, Mich.) for Salmonella spp. Samples were also spread plated on PCA and EMB agar for E. coli or PCA and XLD agar for Salmonella spp, using […] for a total of 1 mL on 4 plates. This was to ensure a countable plate. Plates were inverted and incubated at 35° C. for 24 hrs. (48 hrs. for Salmonella spp.).

Data set [2] concerns E. coli. In kind it is cell-based. Particulars: 5 seconds spray. On the procedure:
as §1, §2, §3, §4, §5, §6, §7, §8

The subject of data set [3] is Salmonella spp. In kind it is cell-based. Particulars: 35 °C, 24 hrs. On the procedure: (§9) Each strain was subcultured on tryptic soy agar (TSA, DIFCO, Detroit, Mich.) slants and stored at 4° C. Strains were individually transferred into 100 mL of sterile 2× BHI (DIFCO, Detroit, Mich.) and incubated at 35° C. for 24 hr. to reach ca. 10^9 colony forming units/mL (CFU/mL). Then, 25 mL of each strain of E. coli was transferred into a sterile bottle (mixture X), and 25 mL of each strain of each strain of Salmonella spp. was transferred into a sterile bottle (mixture Y). Mixtures X and Y were maintained separately throughout the test.
(§10) Serial dilutions were made using Butterfields' Phosphate Buffer (BPB, Sigma, St. Louis, Mo.) in 1 mL aliquots prior to inoculation. BPB was prepared as a stock solution by adding 34 g Of KH2PO4 to 500 mL of distilled water. The pH was adjusted to 7.2, and the solution was brought to a volume of 1 L. The BPB stock was autoclaved for 20 min. at 121° C. and 15 lbs. of pressure. […] For glacial acetic acid (U.S.P.-F.C.C., J. T. Baker, Phillipsburg, N.J.), starting concentrations and serial dilutions were 50%, 25%, 12.5%, 6.25%, 3.12%, 1.56%, 0.78%, 0.39%, and a control (no treatment, buffer and culture). […] For peracetic acid 35.0% (STERIS 20™, STERIS Corporation, Mentor, Ohio), starting concentrations and serial dilutions were 17.5%, 8.75%, 4.38%, 2.19%, 1.09%, 0.55%, 0.30%, 0.14%, 0.07%, 0.03%, and a control. For liquid smoke (Hickory Specialties, Brentwood, Tenn.) starting concentrations and serial dilutions were 50%, 25%, 12.5%, 6.25%, 3.12%, 1.56%, 0.78%, 0.39%, and a control. Dilutions were prepared with deionized water.
(§11) The test tubes were incubated at 35° C. for 24 hrs. and turbidity was evaluated using McFarland equivalence standards, to study the bacteriostatic properties of the diluted solutions. In addition, each dilution was plated to evaluate the bactericidal properties of, the diluted solutions. Using a 1 μL sterile loop, each concentration and control for either microorganism mixture was streaked on plate count agar (PCA, DIFCO, Detroit, Mich.). A selective agar was also used for each mixture, eosine methylene blue agar (EMB, DIFCO, Detroit, Mich.) for E. coli and xylose lysine decarboxylase agar (XLD, DIFCO, Detroit,Mich.) for Salmonella spp. All plates were incubated for 24 hrs. at 35° C. and were inspected for growth or no growth.

For data set [4], the system named is E. coli. Type of data set: cell-based. To be noted: E. coli; 35 °C, 24 hrs. On the procedure: as §9, §10, §11
Data set [5] in a line: Stability of peracetic acid solutions. In kind it is physicochemical. The protocol: Peracetic acid solutions were prepared in deionized water as for Example 2 to nominal concentrations of 1000 and 2000 mg/L. Actual peracetic acid concentrations were measured at 0 and 30 minutes at around 25° C. and 50° C.
The mark [6] stands for this setting: pork skin, 2% lactic acid, 2% acetic acid, 0.1% peracetic acid, after 24 hours.
Setting [7] is: nominal 1000 mg/L, 26-29 °C, pH 2.7.
Setting [8] is: nominal 1000 mg/L, 50 °C, pH 2.7.
The mark [9] stands for this setting: nominal 2000 mg/L, 26-29 °C, pH 2.6.
The mark [10] stands for this setting: nominal 2000 mg/L, 50 °C, pH 2.6.

Turning to `CC(=O)OO` [peracetic acid], the “Total Count (Salmonella) on PCA” value with Salmonella spp. [1] is reported as 5.34 Log CFU/cm^2. For the same compound, the “Total Count (Salmonella) on XLD” value in the data set with Salmonella spp. [1] came to 3.83 Log CFU/cm^2. Besides, the “reduction of E. coli on pork skin” value with E. coli [2] (peracetic acid 0.1%) stood at 3 log/cm^2. Moreover, the “Total Count (E. coli) on EMB” value with E. coli [2] (setting [6]) was found to be 3.04 Log CFU/cm^2. The “Total Count (E. coli) on PCA” value in the data set on E. coli [2] (setting [6]) is reported as 3.28 Log CFU/cm^2. The “MIC (%)” value was 0.137% and 0.14% in the data set on Salmonella spp. [3]; 0.137% and 0.14% against E. coli [4]. The “stability of the solutions over the 30 minute period” value in data set [5] (1000 and 2000 mg/L nominal, around 25 °C and 50 °C) was “relatively stable”. For the same compound, the “Concentration at 0 mins” value in data set [5] (setting [7]) amounted to 1347 µg/mL; in data set [5] (setting [8]) it was 1310 µg/mL; in data set [5] (setting [9]) it was 2016 µg/mL; in data set [5] (setting [10]), 1937 µg/mL. In addition, the “Concentration at 30 mins” value is 1355 µg/mL in data set [5] (setting [7]), 1284 µg/mL in data set [5] (setting [8]), 2017 µg/mL in data set [5] (setting [9]) and 1959 µg/mL in data set [5] (setting [10]).
